Like-named read-outs stand apart in the source and are kept apart here.
What was measured:
Tau/aggregate = Tau/aggregate inhibition in HEK 293 cells expressing mKate2-tagged Tau; assay type: cell-based, Human; settings: Homo sapiens, HEK293
Procedure: (§1) 1) HEK cells with tet-regulated expression of mKate2 tagged Tau were grown in DMEM medium (Dulbecco's Modified Eagle's Medium) containing 0.5 μg/mL doxycycline (Dox)(MP-Bio#198955), after 3-5 days Dox was removed by washing the cells twice with sterile phosphate buffered saline (PBS; Invitrogen#14190-144), cells were left in DMEM without Dox for 72 hours (to further clear remaining Dox in cells).
(§2) The test compounds (along with CytoID™ dye and Hoechst stain) were added to the cells and incubated for 3 hours. Reference compounds were also used in each plate, Rapamycin was used for autophagy induction and chloroquine was used for lysosomal inhibition. After 3 hours test compound was aspirated off and kept. Cells were then washed and read using a fluorescence plate reader. Hoescht, Cyto-ID™ and mKate2 were measured using 3 distinct wavelengths on the plate reader. The Hoescht measurement allowed normalisation of results across wells. After reading, test compound was re-added and the cells are left for a further 21 hours. At the 24 hour time point cells were once again washed and plates read using the fluorescence plate reader.
(§3) Proteostat™ assay was used to detect aggresomes via measurement of p62. Aggresomes are inclusion bodies that form when the ubiquitin-proteasome machinery is overwhelmed with aggregation-prone proteins. Typically, an aggresome forms in response to some cellular stress, such as hyperthermia, viral infection, or exposure to reactive oxygen species. Aggresomes may provide a cytoprotective function by sequestering the toxic, aggregated proteins and may also facilitate their ultimate elimination from cells by autophagy. Following the final plate read described in the Cyto-ID™ assay described above, Proteostat™ detection reagent was added to every well and the plate was incubated for 15 minutes. Following this incubation, the plate was read by fluorescence plate reader at the specified wavelength. After this plate read, the cells were fixed by incubating with warm paraformaldehyde for 8 minutes. The fixed cells were then read by plate reader as before.
Western blot assays were performed to determine protein changes in Tau and p62. Cells were cultured as above and incubated with test compounds for 24 h. Following test compound incubation, the test compound was aspirated off and cells were washed before harvesting. Cells were spun at a low speed and supernatant was aspirated to leave the cell pellet. The cell pellet was then homogenized in buffer, centrifuged at high speed, and the supernatant aspirated and further separated into total fraction and aggregate fraction allowing quantification of soluble and insoluble proteins. Western blots were run on the samples, gels transferred to nitrocellulose and incubated with antibodies for Tau and p62. After incubation with secondary antibodies for detection, the bands of protein were quantified by chemiluminescence.

phospholipase D (PLD) = test: PLD assay (conversion of phospholipids to phosphatidylethanols in presence of ethanol, LC/MS); assay type: cell-based, mice; settings: PLD activation, fold; 24 hours incubation
Procedure: Cells were incubated with test compound for 24 hours. 25 minutes prior to harvest at 24 hours, 3% ethanol solution was added to the wells to catalyze cleavage of the phospholipid. Cells were then placed on ice, washed and harvested. The harvested cells were centrifuged and the supernatant was aspirated and the pellet kept. The pellet was resuspended and chloroform/methanol lipid extraction was performed. The sample was centrifuged and the organic layer was separated, dried under nitrogen and stored at −80° C. On the day of analysis, samples were resuspended and analysed by LC/MS. All phosphatidylethanol species (PEtOH32-40:0-6:16/18:0/1) were combined together and represented as total lipid content (all lipid species).
(§4) The assay was run in e18 primary cortical neurons from PLD1 or PLD2 KO mice cultured for 14 days. Alternatively, the assay can be run in the cells described above in the presence of excess PLD1 or PLD2 inhibitor to preclude that particular action from contributing to the effect of the drug.
(§5) 4) On the day of experiment, cells were washed in warmed HBSS twice before media containing test compound (n=3 per compound per dose), inhibitor (355 nM ML298 or 50 nM VU0150669), or vehicle are added to the wells (1.5 mL in 6 well, 600 μL in 12 well). Plates were incubated for 24 hours at 37° C. with 5% CO2.
5) 25 minutes prior to harvest, a 165 μL of a 3% ethanol solution was added to each well.
PLD activation converts phospholipids to phosphatidylethanols in the presence of ethanol. […] FIPI is a non-competitive inhibitor of PLD activity and was used as a negative control.

[1] = Cytotoxicity LC50 (XTT assay for cell viability); assay type: cell-based; settings: human, transfected HEK 293 cells that express mKate2-tagged Tau;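 note: cells carry doxycycline-repressible Tau, induced by withdrawing doxycycline for 72 h before compound exposure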
Procedure: The cells were grown in the presence of the antibiotic doxycycline. When the antibiotic is removed the cells produce Tau (which can be quantified), thus allowing the test compounds' effects on Tau's production to be compared. Doxycycline was removed for 72 hours prior to exposure to the test compounds to promote sufficient Tau production. Cells were subsequently plated into plates for each of the assays described below.

[2] = Photodiode array (PDA) detection of compound in mouse brain; assay type: in vivo; settings: FIG. 1
Description: FIG. 1 is a graph showing a photodiode array (PDA) spectrum of WHYKD8 in mouse brain.
A photodiode array (PDA) was used to detect WHYKD8 in mouse brain (FIG. 1).

Autophagy Markers = test: Autophagy markers (Cyto-ID assay) in HEK 293 cells; assay type: cell-based, Human
Procedure: The dye used in the kit prevents its accumulation within lysosomes, but enables labelling of vacuoles associated with the autophagy pathway using the LC3 biomarker.
as §2
2) Test samples were prepared in warm FluoroBrite™ DMEM and with 10% FBS and 1% NEAA (FB-DMEM). Rapamycin 200 nM (Enzo #BML-A275-0025) was used for autophagy induction and […] chloroquine was used for lysosomal inhibition (bafilomycin or similar compounds were not used as they give a false negative result in the assay). Dimethyl Sulfoxide 1:1000 (DMSO; Fisher #BP231-100) was used as control. Autophagosome marker Cyto ID™ (1:500; Enzo #ENZ-51031-k200) and Hoechst (1:200) was added to these test sample preparations before treating the cells.
7) At 24 hours post reaction all medium was aspirated and the plate was washed 3 times with warm FB-DMEM, and read again for Hoescht (Ex=355 nm Em=446 nm), CytoID™ (Ex=463 nm; Em=534 nm) and mKate2 (Ex=575 nm; Em=630 nm) in 80 μl of FB-DMEM.

PLD2 = biological target: T1, PLD2 (Homo sapiens, UniProt O14939); test: PLD2 activity: Proteostat/mKate2 with PLD1 inhibitor VU0150669; assay type: cell-based; settings: for EC50: with PLD1 inhibitor VU0150669, 50 nM
T1 construct: endogenous in cells; host or cells: HEK 293 (Jump-In) cells with tet-regulated mKate2-Tau
T1 sequence (O14939 whole entry): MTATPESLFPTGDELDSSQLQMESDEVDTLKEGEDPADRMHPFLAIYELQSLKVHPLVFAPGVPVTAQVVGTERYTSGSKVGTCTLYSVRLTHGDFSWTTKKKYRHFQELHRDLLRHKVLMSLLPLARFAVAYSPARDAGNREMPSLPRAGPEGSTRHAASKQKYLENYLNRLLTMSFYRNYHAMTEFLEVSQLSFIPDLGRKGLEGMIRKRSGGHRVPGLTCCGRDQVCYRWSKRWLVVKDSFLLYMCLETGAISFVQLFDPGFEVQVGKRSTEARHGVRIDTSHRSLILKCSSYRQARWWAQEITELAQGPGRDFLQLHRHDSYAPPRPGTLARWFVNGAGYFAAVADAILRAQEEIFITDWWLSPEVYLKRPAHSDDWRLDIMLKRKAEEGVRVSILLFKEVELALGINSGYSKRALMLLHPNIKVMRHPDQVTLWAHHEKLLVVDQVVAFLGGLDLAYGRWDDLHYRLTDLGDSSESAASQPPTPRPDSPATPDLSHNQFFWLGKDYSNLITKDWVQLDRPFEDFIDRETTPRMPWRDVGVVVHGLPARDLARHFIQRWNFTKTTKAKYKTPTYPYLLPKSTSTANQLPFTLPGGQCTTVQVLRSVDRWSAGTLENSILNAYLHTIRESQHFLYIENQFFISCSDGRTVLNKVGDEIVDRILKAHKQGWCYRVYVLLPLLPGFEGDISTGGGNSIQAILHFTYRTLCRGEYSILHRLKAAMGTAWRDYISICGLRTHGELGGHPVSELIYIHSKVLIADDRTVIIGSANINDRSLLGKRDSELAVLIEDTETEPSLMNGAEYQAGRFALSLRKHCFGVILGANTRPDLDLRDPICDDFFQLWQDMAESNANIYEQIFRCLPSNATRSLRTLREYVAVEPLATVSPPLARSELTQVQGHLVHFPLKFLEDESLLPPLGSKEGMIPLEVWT
Procedure: as §4, §5

PLD1 = biological target: T2, PLD1 (Homo sapiens, UniProt Q13393); test: PLD1 activity: Proteostat/mKate2 with PLD2 inhibitor ML298; assay type: cell-based; settings: with ML298, PLD2 inhibitor (355 nM)
T2 construct: endogenous in cells; host or cells: HEK 293 (Jump-In) cells with tet-regulated mKate2-Tau
T2 sequence (Q13393 1-1074): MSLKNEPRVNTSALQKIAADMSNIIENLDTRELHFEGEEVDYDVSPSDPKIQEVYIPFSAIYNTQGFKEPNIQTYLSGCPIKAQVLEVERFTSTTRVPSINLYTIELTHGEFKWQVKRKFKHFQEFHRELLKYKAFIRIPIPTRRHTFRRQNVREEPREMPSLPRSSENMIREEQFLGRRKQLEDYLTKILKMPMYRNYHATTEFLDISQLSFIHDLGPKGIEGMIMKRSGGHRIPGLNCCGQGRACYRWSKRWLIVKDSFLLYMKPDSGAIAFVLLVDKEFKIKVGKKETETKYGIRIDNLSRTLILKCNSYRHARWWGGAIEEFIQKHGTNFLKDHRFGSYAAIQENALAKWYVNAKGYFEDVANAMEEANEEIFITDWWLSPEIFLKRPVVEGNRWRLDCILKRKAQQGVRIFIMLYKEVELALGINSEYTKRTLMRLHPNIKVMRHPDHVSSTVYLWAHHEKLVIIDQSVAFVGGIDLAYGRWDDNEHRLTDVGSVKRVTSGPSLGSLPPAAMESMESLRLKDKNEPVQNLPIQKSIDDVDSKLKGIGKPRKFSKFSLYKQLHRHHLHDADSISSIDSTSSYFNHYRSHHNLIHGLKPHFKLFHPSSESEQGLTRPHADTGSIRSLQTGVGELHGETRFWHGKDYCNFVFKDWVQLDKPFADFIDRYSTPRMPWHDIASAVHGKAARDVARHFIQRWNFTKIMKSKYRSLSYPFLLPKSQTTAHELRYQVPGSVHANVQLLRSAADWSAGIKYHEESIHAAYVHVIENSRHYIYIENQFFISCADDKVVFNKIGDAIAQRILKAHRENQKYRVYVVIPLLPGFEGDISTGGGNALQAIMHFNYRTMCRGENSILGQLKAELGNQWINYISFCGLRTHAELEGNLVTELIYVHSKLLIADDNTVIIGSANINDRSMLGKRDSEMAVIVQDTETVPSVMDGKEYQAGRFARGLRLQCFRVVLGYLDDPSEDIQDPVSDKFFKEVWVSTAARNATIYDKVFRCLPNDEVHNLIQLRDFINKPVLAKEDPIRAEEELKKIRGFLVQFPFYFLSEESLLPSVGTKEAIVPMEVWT
Procedure: as §4, §5

mKate2 tagged Tau = test: Tau-mKate2 fluorescence EC50; assay type: cell-based; settings: Homo sapiens; 50% reduction of mKate2 fluorescence (tau tag)
Procedure: as §1
as §2, with “After 3 hours test compound was aspirated off and kept.” left out, “The Hoescht measurement allowed normalisation of results across wells.” left out
5) Treatment plate was then washed quickly 3 times with warm FB-DMEM (100 μL/well). […] At this point, the plate was ready for reading. See details in Reading Plate section. Hoescht was read at Excitation wavelength (Ex)=355 nm & Emission wavelength (Em)=446 nm. mKate2 was read at Ex=575 nm & Em=630 nm. Cyto-ID™ was read at Ex=463 nm & Em=534 nm. […]

aggregates (Proteostat) = test: Proteostat protein aggregation assay EC50; assay type: cell-based; settings: Homo sapiens; 50% reduction of Proteostat levels (fluorescent marker of aggregates)
Description: as §3
8) Detection solution was prepared by adding 10 μl Proteostat™ detection reagent (ENZ-51023-KP002) and 200 μL of 10× assay buffer into 1790 μL water and mixing well.
9) 20 μL was added per well (each well had 80 μl of Fluorobrite™ media with no FBS) and incubated in the dark for 15 min at room temperature.
10) Fluorescence for Proteostat™ (Ex=550 nm; Em=600 nm) was then read.

SMILES | inhibition at 1 µM (Tau/aggregate) | PLD (phospholipase D (PLD)) | CC50 ([1]; read-out: Cyto-toxixity LC50) | detection in mouse brain [2] | % Increase Autophagy Markers (Autophagy Markers) | Proteostat PLD2/PLD1 ratio (PLD2; Proteostat readout) | mKate2 PLD2/PLD1 ratio (PLD2; mKate2 readout) | EC50 (PLD2; read-out: Proteostat (nM) using pharmacological inhibitor PLD2) | EC50 (PLD2; read-out: mKate2 (nM) using pharmacological inhibitor PLD2) | EC50 (PLD1; read-out: Proteostat (nM) using pharmacological inhibitor PLD1) | EC50 (PLD1; read-out: mKate2 (nM) using pharmacological inhibitor PLD1) | CC50 ([1]; XTT assay, 200 = upper concentration limit tested, read-out: LC50 (the source's name)) | EC50 (mKate2 tagged Tau) | EC50 (aggregates (Proteostat))
Oc1ccc(CCNc2ncnc3ccc(Cl)cc23)cc1 [WHYKD8] | 30% | 2.8X | > 100000 nM | readily detected | 25% |  |  |  |  |  |  |  |  | 
c1cnc2c(SC3CCCC3)ncnc2c1 [WHYKD36] |  |  |  |  |  | 1.5 | 1.7 | 604 nM | 2280 nM | 394 nM | 1330 nM | 67000 nM | 1040 nM | 383 nM
